From patent US20240308992A1 (Biopolar Youtang(Guangdong) Pharmaceutical Co., Ltd., priority 2021, published 2024)

Biological target: T1, Drak2 (Homo sapiens, UniProt O94768)
T1 sequence (O94768 1-372): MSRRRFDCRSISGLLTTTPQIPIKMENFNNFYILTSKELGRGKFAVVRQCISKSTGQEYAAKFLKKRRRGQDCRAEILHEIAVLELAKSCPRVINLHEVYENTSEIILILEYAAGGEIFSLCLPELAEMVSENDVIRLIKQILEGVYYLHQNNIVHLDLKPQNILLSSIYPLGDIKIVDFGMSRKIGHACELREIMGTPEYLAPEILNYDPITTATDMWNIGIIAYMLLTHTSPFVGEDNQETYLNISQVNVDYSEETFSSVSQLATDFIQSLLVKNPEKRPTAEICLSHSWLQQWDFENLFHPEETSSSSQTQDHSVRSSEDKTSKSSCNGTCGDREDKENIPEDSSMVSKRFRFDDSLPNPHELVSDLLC
Assay: Drak2 activity test, ADP-Glo kinase assay (Promega)
Type: biochemical
Conditions: inhibition of Drak2 kinase activity, 2 h room temperature, activity range classes, read-out: IC50_Drak2

For CCCCC(=O)Nc1csc(-c2cncc(-c3ccc(C(=O)N(C)C4CCN(C5CC5)CC4)c(OC)c3)n2)c1 [Example B69, N-(1-cyclopropylpiperidin-4-yl)-2-methoxy-N-methyl-4-(6-(4-pentanamidothiophen-2-yl)pyrazin-2-yl)benzamide], the IC50 was less than 10 nM.

Molecule CCCCC(=O)Nc1csc(-c2cncc(-c3ccc(C(=O)N(C)C4CCN(CC(F)(F)F)CC4)c(OC)c3)n2)c1 [Example B70, 2-methoxy-N-methyl-4-(6-(4-pentanamidothiophen-2-yl)pyrazin-2-yl)-N-(1-(2,2,2-trifluoroethyl)piperidin-4-yl)benzamide] has an IC50 of 101 to 1000 nM.

Work on CCCCC(=O)Nc1csc(-c2cncc(-c3ccc(C(=O)N(C)C4CCN(c5cnn(C)c5)CC4)c(OC)c3)n2)c1 [Example B71, 2-methoxy-N-methyl-N-(1-(1-methyl-1H-pyrazol-4-yl)piperidin-4-yl)-4-(6-(4-pentanamidothiophen-2-yl)pyrazin-2-yl)benzamide] yielded an IC50 of 11 to 100 nM.

Molecule CCCCC(=O)Nc1csc(-c2cncc(-c3ccc(C(=O)N(C)C4CCN(c5ncccn5)CC4)c(OC)c3)n2)c1 [Example B72, 2-methoxy-N-methyl-4-(6-(4-pentanamidothiophen-2-yl)pyrazin-2-yl)-N-(1-(pyrimidin-2-yl)piperidin-4-yl)benzamide] has an IC50 of 101 to 1000 nM.

For CCCCC(=O)Nc1csc(-c2cncc(-c3ccc(C(=O)N(C)C4CCN(C)CC4)c(F)c3)n2)c1 [Example B73, 2-fluoro-N-methyl-N-(1-methylpiperidin-4-yl)-4-(6-(4-pentanamidothiophen-2-yl)pyrazin-2-yl)benzamide], the IC50 was 101 to 1000 nM.

CCCCC(=O)Nc1csc(-c2cncc(-c3cc(F)c(C(=O)N(C)C4CCN(C)CC4)c(F)c3)n2)c1 [Example B74, 2,6-difluoro-N-methyl-N-(1-methylpiperidin-4-yl)-4-(6-(4-pentanamidothiophen-2-yl)pyrazin-2-yl)benzamide] gave an IC50 of 101 to 1000 nM.

CCCCC(=O)Nc1csc(-c2cccc(-c3ccc(C(=O)N(C4CC4)C4CCN(C)CC4)c(OC)c3)n2)c1 [Example B75, N-cyclopropyl-2-methoxy-N-(1-methylpiperidin-4-yl)-4-(6-(4-pentanamidothiophen-2-yl)pyridin-2-yl)benzamide] was tested, and the IC50 was greater than 10000 nM.

CCCCC(=O)Nc1csc(-c2cncc(-c3ccc(C(=O)N(C4CC4)C4CCN(C)CC4)c(OC)c3)n2)c1 [Example B76, N-cyclopropyl-2-methoxy-N-(1-methylpiperidin-4-yl)-4-(6-(4-pentanamidothiophen-2-yl)pyrazin-2-yl)benzamide] was tested, and the IC50 was 11 to 100 nM.

CCCCC(=O)Nc1csc(-c2cncc(-c3ccc(C(=O)N(C4CC4)C4CCN(C5CC5)CC4)c(OC)c3)n2)c1 [Example B78, N-cyclopropyl-N-(1-cyclopropylpiperidin-4-yl)-2-methoxy-4-(6-(4-pentanamidothiophen-2-yl)pyrazin-2-yl)benzamide] was tested, and the IC50 was 11 to 100 nM.

In the case of COc1cc(-c2cncc(-c3cc(NC(=O)CC4CC4)cs3)n2)ccc1C(=O)N(C)OC [Example B79, 4-(6-(4-(2-cyclopropylacetamido)thiophen-2-yl)pyrazin-2-yl)-N,2-dimethoxy-N-methylbenzamide], the IC50 is reported as 11 to 100 nM.

COc1cc(-c2cncc(-c3cc(NC(=O)CC45CC(C4)C5)cs3)n2)ccc1C(=O)Nc1nnco1 [Example B80, 4-(6-(4-(2-(bicyclo[1.1.1]pentan-1-yl)acetamido)thiophen-2-yl)pyrazin-2-yl)-2-methoxy-N-(1,3,4-oxadiazol-2-yl)benzamide] gave an IC50 of 11 to 100 nM.

Molecule COc1cc(-c2cncc(-c3cc(NC(=O)CC4CCC4)cs3)n2)ccc1C(=O)N(C)OC [Example B81, 4-(6-(4-(2-cyclobutylacetamido)thiophen-2-yl)pyrazin-2-yl)-N,2-dimethoxy-N-methylbenzamide] has an IC50 of 11 to 100 nM.

Work on COc1cc(-c2cncc(-c3cc(NC(=O)CC4(C)COC4)cs3)n2)ccc1C(=O)N(C)C1CCN(C)CC1 [Example B82, 2-methoxy-N-methyl-4-(6-(4-(2-(3-methyloxetan-3-yl)acetamido)thiophen-2-yl)pyrazin-2-yl)-N-(1-methylpiperidin-4-yl)benzamide] yielded an IC50 of 101 to 1000 nM.
